Marks after values point to notes of the source that are not given here.
Key:
Ovariectomized Primates [1] = experiment: Cortical histomorphometry of the humerus midshaft; format: in vivo, Macaca fascicularis; conditions: mean ± SEM
Source text: (§1) Biomechanical tests were done on lumbar vertebrae L-3 to L-4, the femur neck, humerus midshaft, and on a cortical bone specimen machined from the femur diaphysis (measures defined in Table 2). Conventional static and dynamic histomorphometry were done (measures described in Table 6) on the humerus midshaft, lumbar vertebra L-2, femoral neck, femur midshaft, the radius midshaft and distal radius. Initial statistical analyses compared all groups to vehicle-treated ovariectomized controls. The data is suitable for additional exploratory analyses to examine dose dependency, effects of withdrawal, interactions between outcomes, and changes in time by methods known to those of skill in the art. All assays were conducted and determined by methods known in the art.
For certain experimental subjects, cortical bone of the humerus was examined by histomorphometry and by polarized Fourier transform infrared microscopy. The Fourier transform infrared microscopy was conducted by an adaptation of known methods for such microscopy.

Ovariectomized Primates [2] = experiment: Biomechanical measures of strength in the spine (lumbar vertebrae L-3 and L-4); format: in vivo, Macaca fascicularis; conditions: for A (cross-sectional area) / E (Young's modulus) / Fy (yield force) / S (stiffness): L-3 and L-4 combined, mean ± SEM
Source text: as §1

rodents = experiment: In vivo mechanistic studies in rodents; conditions: after the first dose
[3] = PTH1-W: withdrawal after 1 µg/kg for 12 months
[4] = PTH5-W: withdrawal after 5 µg/kg for 12 months
[5] = PTH1-W: withdrawal for 6 months after 1 µg/kg for 12 months
[6] = PTH5-W: withdrawal for 6 months after 5 µg/kg for 12 months

teriparatide [rhPTH(1-34)]
Ac.F (Activation frequency) (Ovariectomized Primates [1]; [3]): 3.05 ± 2.15^a cycles/year
B.Ar (Bone area, the total area within the periosteal surface) (Ovariectomized Primates [1]; [3]): 54.94 ± 6.55 mm^2
BFR/BS.Ec (bone formation rate, endocortical surface referent) (Ovariectomized Primates [1]; [3]): 14.89 ± 10.32 µm/day
BFR/BS.Ps (Bone formation rate, periosteal surface referent) (Ovariectomized Primates [1]; [3]): 3.60 ± 3.84^a µm/day
BFR/BV (Bone formation rate, bone volume referent) (Ovariectomized Primates [1]; [3]): 4.39 ± 3.48^a %/year
Ct.Ar (Cortical area) (Ovariectomized Primates [1]; [3]): 38.10 ± 4.83 mm^2
FP (Formation period) (Ovariectomized Primates [1]; [3]): 64.94 ± 11.99 days
L.On.N/Ct.A (Number of fluorochrome labeled osteons per unit cortical area) (Ovariectomized Primates [1]; [3]): 0.50 ± 0.36^a #/mm^2
MAR (Mineral apposition rate, intracortical) (Ovariectomized Primates [1]; [3]): 1.06 ± 0.27 µm/day
MAR.Ec (Mineral apposition rate, endocortical surface) (Ovariectomized Primates [1]; [3]): 0.66 ± 0.16 µm/day
MAR.Ps (mineral apposition rate, periosteal surface) (Ovariectomized Primates [1]; [3]): 0.54 ± 0.15^a µm/day
MS/BS.Ec (mineralizing endocortical surface normalized to total endocortical surface) (Ovariectomized Primates [1]; [3]): 11.74 ± 14.41^a %
MS/BS.Ps (Mineralizing periosteal surface normalized to total periosteal surface) (Ovariectomized Primates [1]; [3]): 3.86 ± 4.83^a %
Me.Ar (Medullary cavity area) (Ovariectomized Primates [1]; [3]): 16.84 ± 3.74 mm^2
O.Wi (Osteoid width) (Ovariectomized Primates [1]; [3]): 3.96 ± 0.83 µm
Po (Porosity, the percentage of bone area occupied by spaces) (Ovariectomized Primates [1]; [3]): 2.23 ± 1.60%
Rs.N/Ct.A (number of resorption spaces per unit cortical area) (Ovariectomized Primates [1]; [3]): 0.12 ± 0.07^a #/mm^2
W.Wi (Osteonal wall width) (Ovariectomized Primates [1]; [3]): 63.12 ± 17.35 µm
omt (Osteoid maturation time) (Ovariectomized Primates [1]; [3]): 3.86 ± 0.74 days
Ac.F (Activation frequency) (Ovariectomized Primates [1]; PTH1: 1 µg/kg for 18 months): 7.69 ± 4.96 cycles/year
B.Ar (Bone area, the total area within the periosteal surface) (Ovariectomized Primates [1]; PTH1: 1 µg/kg for 18 months): 54.22 ± 5.97 mm^2
BFR/BS.Ec (bone formation rate, endocortical surface referent) (Ovariectomized Primates [1]; PTH1: 1 µg/kg for 18 months): 18.14 ± 13.95 µm/day
BFR/BS.Ps (Bone formation rate, periosteal surface referent) (Ovariectomized Primates [1]; PTH1: 1 µg/kg for 18 months): 8.53 ± 10.54 µm/day
BFR/BV (Bone formation rate, bone volume referent) (Ovariectomized Primates [1]; PTH1: 1 µg/kg for 18 months): 19.23 ± 5.93 %/year
Ct.Ar (Cortical area) (Ovariectomized Primates [1]; PTH1: 1 µg/kg for 18 months): 37.61 ± 3.86 mm^2
FP (Formation period) (Ovariectomized Primates [1]; PTH1: 1 µg/kg for 18 months): 63.44 ± 10.02 days
L.On.N/Ct.A (Number of fluorochrome labeled osteons per unit cortical area) (Ovariectomized Primates [1]; PTH1: 1 µg/kg for 18 months): 1.26 ± 0.71 #/mm^2
MAR (Mineral apposition rate, intracortical) (Ovariectomized Primates [1]; PTH1: 1 µg/kg for 18 months): 0.98 ± 0.12^a µm/day
MAR.Ec (Mineral apposition rate, endocortical surface) (Ovariectomized Primates [1]; PTH1: 1 µg/kg for 18 months): 0.66 ± 0.15 µm/day
MAR.Ps (mineral apposition rate, periosteal surface) (Ovariectomized Primates [1]; PTH1: 1 µg/kg for 18 months): 0.89 ± 0.95 µm/day
MS/BS.Ec (mineralizing endocortical surface normalized to total endocortical surface) (Ovariectomized Primates [1]; PTH1: 1 µg/kg for 18 months): 25.19 ± 17.14%
MS/BS.Ps (Mineralizing periosteal surface normalized to total periosteal surface) (Ovariectomized Primates [1]; PTH1: 1 µg/kg for 18 months): 8.59 ± 5.73%
Me.Ar (Medullary cavity area) (Ovariectomized Primates [1]; PTH1: 1 µg/kg for 18 months): 16.61 ± 3.77 mm^2
O.Wi (Osteoid width) (Ovariectomized Primates [1]; PTH1: 1 µg/kg for 18 months): 3.66 ± 0.67 µm
Po (Porosity, the percentage of bone area occupied by spaces) (Ovariectomized Primates [1]; PTH1: 1 µg/kg for 18 months): 4.65 ± 4.78%
Rs.N/Ct.A (number of resorption spaces per unit cortical area) (Ovariectomized Primates [1]; PTH1: 1 µg/kg for 18 months): 0.28 ± 0.18 #/mm^2
W.Wi (Osteonal wall width) (Ovariectomized Primates [1]; PTH1: 1 µg/kg for 18 months): 61.36 ± 7.79 µm
omt (Osteoid maturation time) (Ovariectomized Primates [1]; PTH1: 1 µg/kg for 18 months): 3.76 ± 0.70 days
Ac.F (Activation frequency) (Ovariectomized Primates [1]; [4]): 2.05 ± 1.46^a cycles/year
B.Ar (Bone area, the total area within the periosteal surface) (Ovariectomized Primates [1]; [4]): 58.16 ± 8.79^a mm^2
BFR/BS.Ec (bone formation rate, endocortical surface referent) (Ovariectomized Primates [1]; [4]): 12.73 ± 16.33^a µm/day
BFR/BS.Ps (Bone formation rate, periosteal surface referent) (Ovariectomized Primates [1]; [4]): 5.79 ± 4.05 µm/day
BFR/BV (Bone formation rate, bone volume referent) (Ovariectomized Primates [1]; [4]): 2.21 ± 1.73^a %/year
Ct.Ar (Cortical area) (Ovariectomized Primates [1]; [4]): 40.83 ± 5.80^a mm^2
FP (Formation period) (Ovariectomized Primates [1]; [4]): 88.63 ± 52.90 days
L.On.N/Ct.A (Number of fluorochrome labeled osteons per unit cortical area) (Ovariectomized Primates [1]; [4]): 0.38 ± 0.26^a #/mm^2
MAR (Mineral apposition rate, intracortical) (Ovariectomized Primates [1]; [4]): 0.85 ± 0.28^a µm/day
MAR.Ec (Mineral apposition rate, endocortical surface) (Ovariectomized Primates [1]; [4]): 0.63 ± 0.17 µm/day
MAR.Ps (mineral apposition rate, periosteal surface) (Ovariectomized Primates [1]; [4]): 0.82 ± 0.15 µm/day
MS/BS.Ec (mineralizing endocortical surface normalized to total endocortical surface) (Ovariectomized Primates [1]; [4]): 8.93 ± 15.39^a %
MS/BS.Ps (Mineralizing periosteal surface normalized to total periosteal surface) (Ovariectomized Primates [1]; [4]): 2.30 ±3.76^a %
Me.Ar (Medullary cavity area) (Ovariectomized Primates [1]; [4]): 17.34 ± 6.05 mm^2
O.Wi (Osteoid width) (Ovariectomized Primates [1]; [4]): 3.76 ± 0.83 µm
Po (Porosity, the percentage of bone area occupied by spaces) (Ovariectomized Primates [1]; [4]): 6.40 ± 4.22^a %
W.Wi (Osteonal wall width) (Ovariectomized Primates [1]; [4]): 63.82 ± 8.31 µm
omt (Osteoid maturation time) (Ovariectomized Primates [1]; [4]): 5.07 ± 2.65 days
Ac.F (Activation frequency) (Ovariectomized Primates [1]; PTH5: 5 µg/kg for 18 months): 8.70 ± 3.97 cycles/year
B.Ar (Bone area, the total area within the periosteal surface) (Ovariectomized Primates [1]; PTH5: 5 µg/kg for 18 months): 55.81 ± 6.24 mm^2
BFR/BS.Ec (bone formation rate, endocortical surface referent) (Ovariectomized Primates [1]; PTH5: 5 µg/kg for 18 months): 34.04 ± 19.01 µm/day
BFR/BS.Ps (Bone formation rate, periosteal surface referent) (Ovariectomized Primates [1]; PTH5: 5 µg/kg for 18 months): 8.99 ± 5.81 µm/day
BFR/BV (Bone formation rate, bone volume referent) (Ovariectomized Primates [1]; PTH5: 5 µg/kg for 18 months): 12.93 ± 5.94^a %/year
Ct.Ar (Cortical area) (Ovariectomized Primates [1]; PTH5: 5 µg/kg for 18 months): 40.96 ± 4.30^a mm^2
FP (Formation period) (Ovariectomized Primates [1]; PTH5: 5 µg/kg for 18 months): 81.97 ± 95.63 days
L.On.N/Ct.A (Number of fluorochrome labeled osteons per unit cortical area) (Ovariectomized Primates [1]; PTH5: 5 µg/kg for 18 months): 1.45 ± 0.47^a #/mm^2
MAR (Mineral apposition rate, intracortical) (Ovariectomized Primates [1]; PTH5: 5 µg/kg for 18 months): 1.03 ± 0.23 µm/day
MAR.Ec (Mineral apposition rate, endocortical surface) (Ovariectomized Primates [1]; PTH5: 5 µg/kg for 18 months): 0.75 ± 0.14 µm/day
MAR.Ps (mineral apposition rate, periosteal surface) (Ovariectomized Primates [1]; PTH5: 5 µg/kg for 18 months): 0.66 ± 0.17 µm/day
MS/BS.Ec (mineralizing endocortical surface normalized to total endocortical surface) (Ovariectomized Primates [1]; PTH5: 5 µg/kg for 18 months): 40.47 ± 24.68^a %
MS/BS.Ps (Mineralizing periosteal surface normalized to total periosteal surface) (Ovariectomized Primates [1]; PTH5: 5 µg/kg for 18 months): 11.00 ± 9.63%
Me.Ar (Medullary cavity area) (Ovariectomized Primates [1]; PTH5: 5 µg/kg for 18 months): 14.85 ± 4.72^a mm^2
O.Wi (Osteoid width) (Ovariectomized Primates [1]; PTH5: 5 µg/kg for 18 months): 3.94 ± 1.13 µm
Po (Porosity, the percentage of bone area occupied by spaces) (Ovariectomized Primates [1]; PTH5: 5 µg/kg for 18 months): 6.78 ± 4.23^a %
Rs.N/Ct.A (number of resorption spaces per unit cortical area) (Ovariectomized Primates [1]; PTH5: 5 µg/kg for 18 months): 0.43 ± 0.26^a #/mm^2
W.Wi (Osteonal wall width) (Ovariectomized Primates [1]; PTH5: 5 µg/kg for 18 months): 65.29 ± 9.43 µm
omt (Osteoid maturation time) (Ovariectomized Primates [1]; PTH5: 5 µg/kg for 18 months): 6.45 ± 13.85 days
A (cross-sectional area) (Ovariectomized Primates [2]; [5]): 90.9±2.3 mm^2
E (Young's modulus) (Ovariectomized Primates [2]; [5]): 659±42 Mpa
Fy (yield force) (Ovariectomized Primates [2]; [5]): 1899±73^a N
S (stiffness) (Ovariectomized Primates [2]; [5]): 7401±432^a N/mm
E (Young's modulus) (Ovariectomized Primates [2]; PTH1: 1 µg/kg for 18 months): 717±48^a Mpa
Fy (yield force) (Ovariectomized Primates [2]; PTH1: 1 µg/kg for 18 months): 1915±105^a N
S (stiffness) (Ovariectomized Primates [2]; PTH1: 1 µg/kg for 18 months): 7701 ± 474^a N/mm
A (cross-sectional area) (Ovariectomized Primates [2]; [6]): 82.8±2.1 mm^2
E (Young's modulus) (Ovariectomized Primates [2]; [6]): 698±41^a Mpa
Fy (yield force) (Ovariectomized Primates [2]; [6]): 1792±39^a N
S (stiffness) (Ovariectomized Primates [2]; [6]): 7074±314^a N/mm
A (cross-sectional area) (Ovariectomized Primates [2]; PTH5: 5 µg/kg for 18 months): 87.3±2.7 mm^2
E (Young's modulus) (Ovariectomized Primates [2]; PTH5: 5 µg/kg for 18 months): 759±36^a Mpa
Fy (yield force) (Ovariectomized Primates [2]; PTH5: 5 µg/kg for 18 months): 2113±77^3.0 N
S (stiffness) (Ovariectomized Primates [2]; PTH5: 5 µg/kg for 18 months): 8012 ±367^a N/mm
increase of strength (Fy) in the vertebrae (Ovariectomized Primates [2]; compared to ovariectomized controls): up to 43%
time to detectable increase in bone forming surfaces (rodents): ≤ 24 h

From patent EP1769804B1, “hPTH(1-34) for use in preventing or reducing the incidence or severity of vertebral and / or non vertebral fracture in a male human” (priority 1998, dated 2012)
